According to publication PMC7676653, “Molecular analysis of cyclic α-maltosyl-(1→6)-maltose binding protein in the bacterial metabolic pathway” (PLoS ONE, 2020):

Target: T1, CMMBP (CmmC) (Arthrobacter globiformis, UniProt D2YYD8)
T1 construct: N-terminal 6xHis tag, pET-28b (NdeI/BamHI), E. coli Rosetta2 (DE3); structure domains span residues 31-421; tag cleavage not mentioned
T1 sequence (D2YYD8 26-421): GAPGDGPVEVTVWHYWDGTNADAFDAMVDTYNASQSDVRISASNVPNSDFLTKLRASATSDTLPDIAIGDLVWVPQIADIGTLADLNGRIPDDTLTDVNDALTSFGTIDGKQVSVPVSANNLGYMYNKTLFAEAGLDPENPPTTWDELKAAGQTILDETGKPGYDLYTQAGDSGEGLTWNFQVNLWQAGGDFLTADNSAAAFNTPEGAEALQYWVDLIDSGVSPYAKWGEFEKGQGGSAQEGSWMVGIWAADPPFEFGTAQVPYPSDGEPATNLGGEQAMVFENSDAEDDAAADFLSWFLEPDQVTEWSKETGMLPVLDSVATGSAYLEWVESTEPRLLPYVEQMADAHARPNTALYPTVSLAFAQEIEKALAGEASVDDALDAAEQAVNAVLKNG
Test: isothermal titration calorimetry
Format: binding

Kd [nM] | Ka (×10^8 M^-1) (20 mM Tris-HCl pH 8.0, 25 °C, one-site model, printed in parentheses as not reliable (weak affinity, low c value)) | SMILES
9.6 |  | OC[C@H]1O[C@@H]2OC[C@H]3O[C@H](O[C@H]4[C@H](O)[C@@H](O)[C@@H](OC[C@H]5O[C@H](O[C@H]1[C@H](O)[C@H]2O)[C@H](O)[C@@H](O)[C@@H]5O)O[C@@H]4CO)[C@H](O)[C@@H](O)[C@@H]3O [CMM, cyclo-{→6}-α-D-Glcp-(1→4)-α-D-Glcp-(1→6)-α-D-Glcp-(1→4)-α-D-Glcp-(1→)]
 | (0.0022 ± 0.0014) × 10^8 | OC[C@H]1O[C@H](O[C@H]2[C@H](O)[C@@H](O)[C@@H](OC[C@H]3O[C@H](O[C@H]4[C@H](O)[C@@H](O)C(O)O[C@@H]4CO)[C@H](O)[C@@H](O)[C@@H]3O)O[C@@H]2CO)[C@H](O)[C@@H](O)[C@@H]1O (stereo partly drawn) [MM, α-maltosyl-(1→6)-maltose]
